Key:
LRRK2 WT [1] = molecular target: T1, LRRK2 WT (Homo sapiens, UniProt Q5S007); test: Enzymatic activity inhibition against LRRK2 WT (ADP-Glo kinase assay, LRRKtide substrate); type: biochemical; parameters: purchased SignalChem Biotech, Inc. L10-11G-10; details: recombinant LRRK2 WT 36 nM, ATP, 1 h at rt, average Ki
Experimental: Example B. Primary Assays Used to Determine Potency of the LRRK2 Inhibition
Assay for Determining Enzymatic Activity Inhibition Against LRRK2 WT.
Compound activity was determined using recombinant LRRK2 WT protein (SignalChem Biotech, Inc., Cat #L10-11G-10) and LRRKtide substrate (SignalChem Biotech, Inc., Cat #L10-58) in an in vitro enzymatic reaction. The enzymatic reaction was carried out in assay buffer (40 mM TRIS-HCl pH 7.4, 20 mM MgCl2, 0.05 mM DTT, 0.1 mg/mL BSA). The compounds were dispensed into a 384 well Diamond Well Plate (Axigen, Cat #P-384-120SQ-C-S) using the Biomek FX liquid handling system at 80× solutions of compounds in DMSO. The 2× Protein-Substrate mix (final concentration 36 nM of LRRK2 WT and 0.8 μg/μL of LRRKtide) was prepared in the 1× Assay buffer and 4 μL of mixture per well was added into the 384-well white Reaction plate with NBS (Corning, Cat #CLS4513). The 4 μL of LRRKtide substrate w/o LRRK2 WT in the 1× buffer was used for a negative control. Plates were centrifuged for 1 min at 200 g. Next the compounds were added to Reaction plate using Biomek station via following steps: 1 μL of 80× compounds (in DMSO) were mixed thoroughly with 39 μL of 2×10 μM ATP in Assay Buffer, then 4 μL of this mixture was added to Reaction plate with 4 μL of Protein-Substrate mix. Plates were centrifuged for 1 min at 200 g and incubated for 1 hour at rt. Then, 4 μL per well of ADP-Glo reagent (Promega, ADP-Glo™ Kinase Assay, Cat #V9102) was added. Plates were incubated for 30 minutes at rt. Then, 8 μL per well of Kinase detection reagent (Promega, ADP-Glo™ Kinase Assay, Cat #V9102) was added and the luminescence signal was measured with a microplate reader. The % inhibition was then used to calculate the Ki values. The average Ki values are shown in Table B, wherein “A” corresponds to Ki<10.0 nM, “B” corresponds to 10.0 nM K Ki<20.0 nM, “C” 20.0 nM K Ki<50.0 nM, “D” corresponds to 50.0 nM K Ki<100.0 nM and “E” corresponds to Ki>100.0 nM.
Target sequence in this assay (Q5S007 970-2527 limits assumed): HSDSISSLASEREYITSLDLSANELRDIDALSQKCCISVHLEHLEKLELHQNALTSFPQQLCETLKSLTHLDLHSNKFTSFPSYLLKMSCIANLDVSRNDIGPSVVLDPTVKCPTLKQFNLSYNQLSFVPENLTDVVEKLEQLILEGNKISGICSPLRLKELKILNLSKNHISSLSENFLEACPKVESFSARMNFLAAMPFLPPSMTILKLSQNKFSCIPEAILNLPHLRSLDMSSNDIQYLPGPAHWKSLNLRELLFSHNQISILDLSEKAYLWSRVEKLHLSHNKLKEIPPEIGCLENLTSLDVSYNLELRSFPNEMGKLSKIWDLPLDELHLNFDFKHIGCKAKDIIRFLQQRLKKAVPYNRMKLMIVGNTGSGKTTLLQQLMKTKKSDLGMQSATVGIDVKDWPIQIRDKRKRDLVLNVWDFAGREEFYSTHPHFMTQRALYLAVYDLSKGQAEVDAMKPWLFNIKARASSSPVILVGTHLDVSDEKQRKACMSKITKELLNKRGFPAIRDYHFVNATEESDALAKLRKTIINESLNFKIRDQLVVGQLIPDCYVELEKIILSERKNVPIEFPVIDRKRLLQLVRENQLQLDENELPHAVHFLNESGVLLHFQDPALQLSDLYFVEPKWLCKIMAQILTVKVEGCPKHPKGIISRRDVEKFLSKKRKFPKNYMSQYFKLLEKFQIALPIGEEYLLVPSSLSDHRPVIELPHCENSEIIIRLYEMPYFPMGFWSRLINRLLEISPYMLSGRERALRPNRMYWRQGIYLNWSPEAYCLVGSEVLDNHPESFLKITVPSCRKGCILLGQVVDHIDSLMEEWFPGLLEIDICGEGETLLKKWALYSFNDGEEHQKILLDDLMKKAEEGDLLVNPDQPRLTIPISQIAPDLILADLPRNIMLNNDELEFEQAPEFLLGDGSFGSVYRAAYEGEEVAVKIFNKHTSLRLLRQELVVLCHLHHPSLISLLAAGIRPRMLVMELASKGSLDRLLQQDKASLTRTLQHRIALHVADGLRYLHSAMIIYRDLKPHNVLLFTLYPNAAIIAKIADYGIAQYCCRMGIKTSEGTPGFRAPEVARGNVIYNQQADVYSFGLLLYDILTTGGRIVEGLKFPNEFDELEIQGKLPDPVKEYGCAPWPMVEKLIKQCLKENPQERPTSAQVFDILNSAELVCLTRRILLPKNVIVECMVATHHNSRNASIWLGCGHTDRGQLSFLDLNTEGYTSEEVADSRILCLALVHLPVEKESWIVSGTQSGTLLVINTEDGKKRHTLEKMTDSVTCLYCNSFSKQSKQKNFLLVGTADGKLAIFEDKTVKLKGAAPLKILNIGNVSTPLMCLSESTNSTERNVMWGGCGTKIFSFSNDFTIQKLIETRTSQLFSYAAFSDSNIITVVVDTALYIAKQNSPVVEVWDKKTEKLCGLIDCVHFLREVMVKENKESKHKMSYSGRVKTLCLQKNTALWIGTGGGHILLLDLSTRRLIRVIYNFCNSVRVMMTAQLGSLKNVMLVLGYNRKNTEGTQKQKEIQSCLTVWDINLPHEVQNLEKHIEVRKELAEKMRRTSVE

LRRK2[G2019S] [2] = molecular target: T2, LRRK2[G2019S] (Homo sapiens, UniProt Q5S007, G2019S); test: Enzymatic activity inhibition against LRRK2[G2019S] (ADP-Glo kinase assay, LRRKtide substrate); type: biochemical; parameters: purchased SignalChem Biotech, Inc. L10-12GG-10; details: recombinant LRRK2[G2019S] 36 nM, ATP, 1 h at rt, average Ki
Experimental: Example A. Primary Assays Used to Determine Potency of the LRRK2 Inhibition
Assay for Determining Enzymatic Activity Inhibition Against LRRK2[G2019S].
Compound activity was determined using recombinant LRRK2[G2019S] protein (SignalChem Biotech, Inc., Cat #L10-12GG-10) and LRRKtide substrate (SignalChem Biotech, Inc., Cat #L10-58) in an in vitro enzymatic reaction. The enzymatic reaction was carried out in assay buffer (40 mM TRIS-HCl pH 7.4, 20 mM MgCl2, 0.05 mM DTT, 0.1 mg/mL BSA). The compounds were dispensed into a 384 well Diamond Well Plate (Axigen, Cat #P-384-120SQ-C-S) using the Biomek FX liquid handling system at the 80× solutions of compounds in DMSO. The 2× Protein-Substrate mix (final concentration 36 nM of LRRK2[G2019S] and 0.8 μg/μL of LRRKtide) was prepared in 1× Assay buffer and 4 μL of mixture per well was added into the 384-well white Reaction plate with NBS (Corning, Cat #CLS4513). The 4 μL of LRRKtide substrate w/o LRRK2[G2019S] in the 1× buffer was used for a negative control. Plates were centrifuged for 1 min at 200 g. Next the compounds were added to the reaction plate using Biomek station via following steps: 1 μL of 80× compounds (in DMSO) were mixed thoroughly with 39 μL of 2×10 μM ATP in Assay Buffer, then 4 μL of this mixture was added to Reaction plate with 4 μL of Protein-Substrate mix. Plates were centrifuged for 1 min at 200 g and incubated for 1 h at rt. Then, 4 μL per well of ADP-Glo reagent (Promega, ADP-Glo™ Kinase Assay, Cat #V9102) was added. Plates were incubated for 30 min at rt. Then, 8 μL per well of Kinase detection reagent (Promega, ADP-Glo™ Kinase Assay, Cat #V9102) was added and the luminescence signal was measured with a microplate reader. The luminescence signal was detected with CLARIOstar Plus (BMG LABTECH) microplate reader. The % inhibition was then used to calculate the Ki values. The average Ki values are shown in Table A, wherein “A” corresponds to Ki<5.0 nM, “B” corresponds to 5.0 nM≤Ki<10.0 nM, “C” 10.0 nM≤Ki<50.0 nM, “D” corresponds to 50.0 nM≤Ki<100.0 nM and “E” corresponds to Ki>100.0 nM.
Target sequence in this assay (Q5S007 970-2527 G2019S limits assumed): as the sequence (Q5S007 970-2527 limits assumed) above, with G1050S counted along it

LRRK2 WT [3] = molecular target: T1, LRRK2 WT; test: Cell-based NanoBRET target engagement assay in HEK293 cells transfected with LRRK2 WT-NanoLuc fusion vector; parameters: expressed in transfected cells; host or cells: HEK293 (ATCC); details: compound treatment 1 h
Experimental: (§1) Example C. Cell-Based NanoBRET Target Engagement Assay in 11EK293 Cells Transiently Transfected with LRRK2 WT- or LRRK2 (G2019S)-Nano Luc Fusion Vector
(§2) H1EK293 (ATCC) cells were transfected with […] LRRK2 WT or LRRK2 (G2019S) and 9 μg transfection carrier DNA. The transfected cells were treated with the compounds (starting at 1 μM, 10-dose with 3-fold dilution) and reference compounds CEP-701 or Staurosporine (starting at 1 μM, 10-dose with 3-fold dilution); compound treatment time: 1 h. LRRK2 WT and LRRK2 (G2019S) target engagement was measured by NanoBRET assay. Curve fits were performed only when % NanoBret signal at the highest concentration of compounds was less than […]. Assay format: 384-well format, 4000 cells/well. The IC50 values are shown in Table C, wherein “A” corresponds to IC50≤50.0 nM, “B” corresponds to 50.0 nM≤IC50<100.0 nM, “C” corresponds to 100.0 nM≤IC50.
Target sequence in this assay (Q5S007 whole entry): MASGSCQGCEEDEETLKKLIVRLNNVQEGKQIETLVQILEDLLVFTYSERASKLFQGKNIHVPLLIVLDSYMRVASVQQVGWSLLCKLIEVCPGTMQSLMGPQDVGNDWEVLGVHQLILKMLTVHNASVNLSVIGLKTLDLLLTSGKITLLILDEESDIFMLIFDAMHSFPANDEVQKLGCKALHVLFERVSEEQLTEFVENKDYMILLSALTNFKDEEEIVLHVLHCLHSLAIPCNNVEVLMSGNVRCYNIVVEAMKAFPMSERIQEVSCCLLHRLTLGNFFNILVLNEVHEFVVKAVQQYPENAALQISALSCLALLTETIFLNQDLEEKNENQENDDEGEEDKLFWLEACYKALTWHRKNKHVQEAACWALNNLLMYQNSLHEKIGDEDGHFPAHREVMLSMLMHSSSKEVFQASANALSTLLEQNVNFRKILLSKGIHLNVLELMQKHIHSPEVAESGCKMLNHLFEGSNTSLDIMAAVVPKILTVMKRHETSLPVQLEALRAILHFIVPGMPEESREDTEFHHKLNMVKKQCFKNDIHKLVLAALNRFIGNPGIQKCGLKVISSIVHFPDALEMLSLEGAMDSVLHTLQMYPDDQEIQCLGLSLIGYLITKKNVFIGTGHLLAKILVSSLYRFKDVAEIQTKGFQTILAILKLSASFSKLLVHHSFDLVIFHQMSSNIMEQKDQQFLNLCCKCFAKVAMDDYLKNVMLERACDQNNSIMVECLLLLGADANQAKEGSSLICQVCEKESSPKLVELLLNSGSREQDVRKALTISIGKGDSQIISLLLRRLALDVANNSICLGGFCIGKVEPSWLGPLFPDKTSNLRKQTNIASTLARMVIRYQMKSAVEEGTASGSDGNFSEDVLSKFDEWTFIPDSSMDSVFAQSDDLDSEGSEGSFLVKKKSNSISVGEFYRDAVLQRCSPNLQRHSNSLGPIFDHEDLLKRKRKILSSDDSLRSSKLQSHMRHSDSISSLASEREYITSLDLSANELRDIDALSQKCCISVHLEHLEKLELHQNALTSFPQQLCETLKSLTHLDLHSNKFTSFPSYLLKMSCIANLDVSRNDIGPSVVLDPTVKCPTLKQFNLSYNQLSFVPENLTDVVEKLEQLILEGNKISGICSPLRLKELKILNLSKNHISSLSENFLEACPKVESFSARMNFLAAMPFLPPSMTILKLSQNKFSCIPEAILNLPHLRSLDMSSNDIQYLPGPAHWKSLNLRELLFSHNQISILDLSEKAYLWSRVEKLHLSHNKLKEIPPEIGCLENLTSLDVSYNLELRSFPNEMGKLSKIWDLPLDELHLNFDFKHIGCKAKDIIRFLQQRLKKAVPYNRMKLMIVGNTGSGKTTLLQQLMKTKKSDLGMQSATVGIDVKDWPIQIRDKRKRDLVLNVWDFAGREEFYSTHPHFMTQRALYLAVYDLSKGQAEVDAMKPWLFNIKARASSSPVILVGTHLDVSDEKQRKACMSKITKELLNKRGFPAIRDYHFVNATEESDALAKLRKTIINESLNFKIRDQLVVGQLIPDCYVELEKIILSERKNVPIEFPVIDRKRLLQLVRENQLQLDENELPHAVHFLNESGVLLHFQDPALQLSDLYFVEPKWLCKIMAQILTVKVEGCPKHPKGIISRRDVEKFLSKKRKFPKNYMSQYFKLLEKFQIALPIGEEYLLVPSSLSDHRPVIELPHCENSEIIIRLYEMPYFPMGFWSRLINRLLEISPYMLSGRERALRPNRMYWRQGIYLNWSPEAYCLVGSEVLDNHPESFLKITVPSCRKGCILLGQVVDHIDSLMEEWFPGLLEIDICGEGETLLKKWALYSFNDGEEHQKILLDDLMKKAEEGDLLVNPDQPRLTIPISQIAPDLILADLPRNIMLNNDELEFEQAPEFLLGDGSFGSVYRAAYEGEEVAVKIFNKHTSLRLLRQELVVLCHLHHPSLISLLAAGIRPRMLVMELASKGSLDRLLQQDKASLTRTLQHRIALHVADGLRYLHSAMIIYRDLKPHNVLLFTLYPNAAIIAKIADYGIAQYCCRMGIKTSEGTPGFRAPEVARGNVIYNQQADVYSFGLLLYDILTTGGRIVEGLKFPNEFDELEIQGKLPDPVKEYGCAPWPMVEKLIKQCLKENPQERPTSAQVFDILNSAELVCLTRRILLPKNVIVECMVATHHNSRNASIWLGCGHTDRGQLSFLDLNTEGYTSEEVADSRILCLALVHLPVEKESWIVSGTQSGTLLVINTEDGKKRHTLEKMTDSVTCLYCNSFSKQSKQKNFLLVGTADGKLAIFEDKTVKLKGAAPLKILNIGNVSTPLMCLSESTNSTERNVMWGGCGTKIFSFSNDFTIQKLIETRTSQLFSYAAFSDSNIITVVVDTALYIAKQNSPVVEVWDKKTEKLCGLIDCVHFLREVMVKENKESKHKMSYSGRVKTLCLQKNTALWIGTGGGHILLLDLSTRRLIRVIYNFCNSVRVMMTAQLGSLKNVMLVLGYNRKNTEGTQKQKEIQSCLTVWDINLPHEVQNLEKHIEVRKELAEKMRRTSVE

LRRK2[G2019S] [4] = molecular target: T2, LRRK2[G2019S]; test: Cell-based NanoBRET target engagement assay in HEK293 cells transfected with LRRK2 (G2019S)-NanoLuc fusion vector; parameters: expressed in transfected cells; host or cells: HEK293 (ATCC); details: compound treatment 1 h
Experimental: as §1, §2
Target sequence in this assay (Q5S007 whole entry G2019S): as the sequence (Q5S007 whole entry) above, with G2019S counted along it

| SMILES | Ki (LRRK2 WT [1]) | Ki (LRRK2[G2019S] [2]) | IC50 (LRRK2 WT [3]) | IC50 (LRRK2[G2019S] [4]) |
| --- | --- | --- | --- | --- |
| Cn1nc(-c2n[nH]c3ccc(OC(F)(F)F)cc23)cc(N2CCOCC2)c1=O [Compound 22, 2-methyl-4-morpholino-6-[5-(trifluoromethoxy)-1H-indazol-3-yl]pyridazin-3-one] | > 100 nM | > 100 nM | – | – |
| Cn1nc(-c2n[nH]c3ccc(OC(F)F)cc23)cc(N2CCOCC2)c1=O [Compound 32, 6-[5-(difluoromethoxy)-1H-indazol-3-yl]-2-methyl-4-morpholino-pyridazin-3-one] | > 100 nM | 50 to 100 nM | – | – |
| CC(C)Oc1cccc2[nH]nc(-c3cc(N4CCOCC4)c(=O)n(C)n3)c12 [Compound 15, 6-(4-isopropoxy-1H-indazol-3-yl)-2-methyl-4-morpholino-pyridazin-3-one] | > 100 nM | > 100 nM | – | – |
| N#CC1(c2ccc3cnn(-c4cnnc(N5CCCC5)c4)c3c2)CCCCC1 [Compound 37, 1-[1-(6-pyrrolidin-1-ylpyridazin-4-yl)indazol-6-yl]cyclohexanecarbonitrile] | > 100 nM | > 100 nM | – | – |
| Cn1nc(-c2n[nH]c3cc4c(cc23)OCCC4)cc(N2CCOCC2)c1=O [Compound 31, 2-methyl-4-morpholino-6-(1,6,7,8-tetrahydropyrano[2,3-f]indazol-3-yl)pyridazin-3-one] | 50 to 100 nM | > 100 nM | – | – |
| O=S1(=O)CCCC1c1ccc2cnn(-c3cnnc(N4CCCC4)c3)c2c1 (stereo not shown) [Compound 34, 2-[1-(6-pyrrolidin-1-ylpyridazin-4-yl)indazol-6-yl]thiolane 1,1-dioxide] | > 100 nM | > 100 nM | – | – |
| Cc1c(OC(C)C)ccc2[nH]nc(-c3cc(N4CCOCC4)c(=O)n(C)n3)c12 [Compound 24, 6-(5-isopropoxy-4-methyl-1H-indazol-3-yl)-2-methyl-4-morpholino-pyridazin-3-one] | > 100 nM | > 100 nM | – | – |
| N#CC1(c2ccc3cnn(-c4cnnc(N5CCCC5)c4)c3c2)CC1 [Compound 36, 1-[1-(6-pyrrolidin-1-ylpyridazin-4-yl)indazol-6-yl]cyclopropanecarbonitrile] | 50 to 100 nM | > 100 nM | – | – |
| Cn1nc(-n2ncc3ccc(C(C)(C)C#N)cc32)cc(N2CCOCC2)c1=O [Compound 43, 2-methyl-2-[1-(1-methyl-5-morpholino-6-oxo-pyridazin-3-yl)indazol-6-yl]propanenitrile] | 50 to 100 nM | > 100 nM | – | – |
| Cn1nc(-c2n[nH]c3ccc(S(C)(=O)=O)cc23)cc(N2CCOCC2)c1=O [Compound 33, 2-methyl-6-(5-methylsulfonyl-1H-indazol-3-yl)-4-morpholino-pyridazin-3-one] | 50 to 100 nM | > 100 nM | – | – |

Second part, the compound after the results:

| Ki (LRRK2 WT [1]) | Ki (LRRK2[G2019S] [2]) | IC50 (LRRK2 WT [3]) | IC50 (LRRK2[G2019S] [4]) | SMILES |
| --- | --- | --- | --- | --- |
| ≤ 10 nM | 10 to 50 nM | ≥ 100 nM | ≥ 100 nM | Cc1cc2[nH]nc(-c3cc(N4CCOCC4)c(=O)n(C)n3)c2cc1OC(C)C [Compound 26, 6-(5-isopropoxy-6-methyl-1H-indazol-3-yl)-2-methyl-4-morpholino-pyridazin-3-one] |
| 20 to 50 nM | 50 to 100 nM | – | – | N#CC1(c2ccc3cnn(-c4cnnc(N5CCCC5)c4)c3c2)CCCC1 [Compound 39, 1-[1-(6-pyrrolidin-1-ylpyridazin-4-yl)indazol-6-yl]cyclopentanecarbonitrile] |
| ≤ 10 nM | 5 to 10 nM | ≥ 100 nM | 50 to 100 nM | CC(C)Oc1ccc2[nH]nc(-c3cc(N4CCOCC4)c(=O)n(C(C)C)n3)c2c1 [Compound 21, 6-(5-isopropoxy-1H-indazol-3-yl)-2-isopropyl-4-morpholino-pyridazin-3-one] |
| 10 to 20 nM | 5 to 10 nM | – | – | CC(C)Oc1ccc2[nH]nc(-c3cnnc(N4CC(O)C4)c3)c2c1 [Compound 1, 1-[5-(5-isopropoxy-1H-indazol-3-yl)pyridazin-3-yl]azetidin-3-ol] |
| ≤ 10 nM | 5 to 10 nM | – | – | CC(C)Oc1ccc2[nH]nc(-c3cnnc(N4CCOCC4)n3)c2c1 [Compound 13, 4-[5-(5-isopropoxy-1H-indazol-3-yl)-1,2,4-triazin-3-yl]morpholine] |
| ≤ 10 nM | 10 to 50 nM | – | – | Cn1nc(-c2n[nH]c3ccc(-n4cccc4C#N)cc23)cc(N2CCOCC2)c1=O [Compound 45, 1-[3-(1-methyl-5-morpholino-6-oxo-pyridazin-3-yl)-1H-indazol-5-yl]pyrrole-2-carbonitrile] |
| 50 to 100 nM | > 100 nM | – | – | Cn1nc(-c2n[nH]c3ccc4c(c23)CCCO4)cc(N2CCOCC2)c1=O [Compound 29, 2-methyl-4-morpholino-6-(3,7,8,9-tetrahydropyrano[3,2-e]indazol-1-yl)pyridazin-3-one] |
| ≤ 10 nM | 10 to 50 nM | – | – | Cc1nnc(-c2n[nH]c3ccc(OC(C)C)cc23)cc1N1CCOCC1 [Compound 10, 4-[6-(5-isopropoxy-1H-indazol-3-yl)-3-methyl-pyridazin-4-yl]morpholine] |
| ≤ 10 nM | 50 to 100 nM | – | – | Cn1nc(-n2ncc3ccc(C4(C#N)CC4)cc32)cc(N2CCOCC2)c1=O [Compound 41, 1-[1-(1-methyl-5-morpholino-6-oxo-pyridazin-3-yl)indazol-6-yl]cyclopropanecarbonitrile] |
| 10 to 20 nM | ≤ 5 nM | – | – | CC(C)Oc1ccc2[nH]nc(-c3cnnc(N4CCCC4)c3)c2c1 [Compound 5, 5-isopropoxy-3-(6-pyrrolidin-1-ylpyridazin-4-yl)-1H-indazole] |
| 20 to 50 nM | 50 to 100 nM | – | – | CC(C)(C#N)c1ccc2cnn(-c3cnnc(N4CCCC4)c3)c2c1 [Compound 35, 2-methyl-2-[1-(6-pyrrolidin-1-ylpyridazin-4-yl)indazol-6-yl]propanenitrile] |

From patent US20250248998A1, “LRRK2 Inhibitors” (Brenig Therapeutics, Inc., priority 2022, published 2025)
